# Values of other authors as cited in patent EP1239867B1, “METHODS FOR TREATING AND PREVENTING DAMAGE TO MUCOSAL TISSUE” (University of Southern California, priority 1999, dated 2005).
# Square brackets hold non-standard residues; d marks the D form. Ends that are not written are not given here. Phe(4-NH2) = Nc1ccc(C[C@H](N)C(=O)O)cc1
# Tested on: AT2 receptor
Substance,"affinity for AT2 than AT1 (times higher) (selectivity AT2 over AT1, Speth and Kim, BBRC 169:997-1006 (1990)) [times]","binding characteristics (in words) (experimental models of Catalioto et al. 1994, Bryson et al. 1992)"
Asp-Arg-Val-Tyr-Ile-His-Pro-Phe [AII],100,–
Asp-Arg-Val-Tyr-Ile-Xaa-Pro-Phe (DRVYI[Phe(4-NH2)]PF) [p-aminophenylalanine6-AII],–,comparable to AT2 antagonists
